Reference: patent publication US11267861B2, “Peptide-oligourea foldamer compounds and methods of their use” (UREKA SARL, priority 2016, dated 2022)
Values after ≈ are worked out from the molar mass of the structure shown. Numbered stars: 1 amine (or outer) side, 2 acyl side, 3 side chain; on linkers, the order of the positions; unused ones are H or OH. Bridge positions count the residues as written; N and C are the ends. Square brackets hold non-standard residues; d marks the D form. Peptide text beside a SMILES is read from it. I, II: the chains in the order shown. X4 = NCCCC[C@@H](CNC(=O)[*:1])N[*:2]; Nle = CCCC[C@H](N)C(=O)O

Assays:
[1] = target: T1, human glucagon receptor (Homo sapiens, UniProt P47871); assay: Glucagon functional assay: agonist activity by cAMP production (HTRF) in transfected CHO cells; assay type: cell-based; conditions: cAMP production, transfected CHO cells, 10 minutes at 37° C.
T1 construct: expressed in transfected cells; host or cells: CHO cells
T1 sequence (P47871 26-477): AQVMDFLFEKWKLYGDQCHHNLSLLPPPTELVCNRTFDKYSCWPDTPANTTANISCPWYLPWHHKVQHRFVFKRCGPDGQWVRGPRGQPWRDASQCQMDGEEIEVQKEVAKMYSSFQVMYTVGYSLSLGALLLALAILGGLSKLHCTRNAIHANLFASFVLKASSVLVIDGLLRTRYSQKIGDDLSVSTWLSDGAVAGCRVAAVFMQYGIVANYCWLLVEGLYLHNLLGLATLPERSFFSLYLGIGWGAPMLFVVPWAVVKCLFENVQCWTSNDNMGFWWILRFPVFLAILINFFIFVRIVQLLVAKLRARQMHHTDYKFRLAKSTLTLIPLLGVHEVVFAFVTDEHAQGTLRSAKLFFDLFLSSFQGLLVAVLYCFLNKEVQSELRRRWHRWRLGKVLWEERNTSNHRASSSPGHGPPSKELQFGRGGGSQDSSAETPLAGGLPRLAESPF
Protocol: Functional Assay to Examine Bioactivity of Glucagon Receptor Agonists. Evaluation of the agonist activity of compounds at the human glucagon receptor expressed in transfected CHO cells was examined by measuring their effects on cAMP production using the HTRF detection method. […] For stimulated control measurement, separate assay wells contain 100 nM glucagon were utilized.
Following incubation, the cells were lysed and the fluorescence acceptor (D2-labeled cAMP) and fluorescence donor (anti-cAMP antibody labeled with europium cryptate) were added. […] The results are expressed as a percent of the control response to 100 nM glucagon. The standard reference agonist is glucagon, which was tested in each experiment at several concentrations to generate a concentration-response curve from which its EC50 value was calculated.
HTRF (Homogeneous Time-Resolved Fluorescence) principle. The HTRF technology is based on time resolved fluorescence energy transfer (TR-FRET), which occurs between long-lived fluorophore Europium or Terbium Cryptates, and EuK or Tb respectively, as a donor and the allophycocyanin XL665, d2 or Red as acceptor. Many compounds and proteins present in biological fluids or serum are naturally fluorescent, and the use of conventional, prompt fluorescence leads to serious limitations in assay sensitivity. The use of long-lived fluorophore combined with time-resolved detection (a delay between excitation and emission detection) minimizes prompt fluorescence interference.

[2] = Solubility of glucagon analogs (UV absorbance); assay type: physicochemical; conditions: for solubility: 0.01M HCl solution adjusted to pH 7 with Na2HPO4, pH 7, pH adjusted to 7 with Na2HPO4, incubated overnight at 4° C.; for ratio (solubility relative to reference compound 16): relative to compound 16;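 on all read-outs here: peptide stock at 3 mg/ml in 0.01 M HCl, absorbance at 280 nm read before neutralization and again on the diluted supernatant after centrifugation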
Protocol: A solution of 3 mg/ml of glucagon (or analog) was prepared in a 0.01M HCl solution. Then 0.1 ml of the stock solution was diluted to 1 ml with HCl (0.01M) and the UV absorbance measured (to 280 nm) with nanodrop UV spectrometer. The pH of the remaining stock solution was adjusted to 7 using Na2HPO4, and the solution was incubated overnight at 4° C. The solution was then centrifuged three times (5 minutes, 4000 rotations per minute), 0.1 ml of the supernatant was removed and diluted to 1 ml with HCl solution (0.01M).
The final UV absorbance was measured.

SMILES	EC50 [1] [nM]	solubility [2] [µg/mL]	ratio (solubility relative to reference compound 16) [2]
CCCC[C@H](NC(=O)[C@H](CC(C)C)NC(=O)[C@H](Cc1c[nH]c2ccccc12)NC(=O)[C@H](CCC(N)=O)NC(=O)[C@@H](NC(=O)[C@H](Cc1ccccc1)NC(=O)[C@H](CC(=O)O)NC(=O)[C@H](CCC(N)=O)NC(=O)[C@H](C)NC(=O)[C@H](CCCNC(=N)N)NC(=O)[C@H](CCCNC(=N)N)NC(=O)NC[C@H](C)NC(=O)[C@H](CC(=O)O)NC(=O)[C@H](CC(C)C)NC(=O)[C@H](Cc1ccc(O)cc1)NC(=O)[C@H](CCCCN)NC(=O)[C@H](CO)NC(=O)[C@H](Cc1ccc(O)cc1)NC(=O)[C@H](CC(=O)O)NC(=O)[C@H](CO)NC(=O)[C@@H](NC(=O)[C@H](Cc1ccccc1)NC(=O)[C@@H](NC(=O)CNC(=O)[C@H](CCC(N)=O)NC(=O)[C@H](CO)NC(=O)[C@@H](N)Cc1c[nH]cn1)[C@@H](C)O)[C@@H](C)O)C(C)C)C(=O)N[C@@H](CC(N)=O)C(=O)N[C@H](C(=O)O)[C@@H](C)O [Compound 52]	34	490 (≈ 141 µM)	1.9
CCCC[C@H](NC(=O)[C@H](CC(C)C)NC(=O)[C@H](Cc1c[nH]c2ccccc12)NC(=O)[C@H](CCC(N)=O)NC(=O)[C@@H](NC(=O)[C@H](Cc1ccccc1)NC(=O)[C@H](CC(=O)O)NC(=O)[C@H](CCC(N)=O)NC(=O)[C@H](C)NC(=O)[C@H](CCCNC(=N)N)NC(=O)NC[C@H](C)NC(=O)[C@H](CO)NC(=O)[C@H](CC(=O)O)NC(=O)[C@H](CC(C)C)NC(=O)[C@H](Cc1ccc(O)cc1)NC(=O)[C@H](CCCCN)NC(=O)[C@H](CO)NC(=O)[C@H](Cc1ccc(O)cc1)NC(=O)[C@H](CC(=O)O)NC(=O)[C@H](CO)NC(=O)[C@@H](NC(=O)[C@H](Cc1ccccc1)NC(=O)[C@@H](NC(=O)CNC(=O)[C@H](CCC(N)=O)NC(=O)[C@H](CO)NC(=O)[C@@H](N)Cc1c[nH]cn1)[C@@H](C)O)[C@@H](C)O)C(C)C)C(=O)N[C@@H](CC(N)=O)C(=O)N[C@H](C(=O)O)[C@@H](C)O [Compound 53]	0.67	580 (≈ 170 µM)	2.3
CCCC[C@H](NC(=O)[C@H](CC(C)C)NC(=O)[C@H](Cc1c[nH]c2ccccc12)NC(=O)[C@H](CCC(N)=O)NC(=O)[C@@H](NC(=O)[C@H](Cc1ccccc1)NC(=O)[C@H](CC(=O)O)NC(=O)[C@H](CCC(N)=O)NC(=O)NC[C@H](C)NC(=O)[C@H](CCCNC(=N)N)NC(=O)[C@H](CCCNC(=N)N)NC(=O)[C@H](CO)NC(=O)[C@H](CC(=O)O)NC(=O)[C@H](CC(C)C)NC(=O)[C@H](Cc1ccc(O)cc1)NC(=O)[C@H](CCCCN)NC(=O)[C@H](CO)NC(=O)[C@H](Cc1ccc(O)cc1)NC(=O)[C@H](CC(=O)O)NC(=O)[C@H](CO)NC(=O)[C@@H](NC(=O)[C@H](Cc1ccccc1)NC(=O)[C@@H](NC(=O)CNC(=O)[C@H](CCC(N)=O)NC(=O)[C@H](CO)NC(=O)[C@@H](N)Cc1c[nH]cn1)[C@@H](C)O)[C@@H](C)O)C(C)C)C(=O)N[C@@H](CC(N)=O)C(=O)N[C@H](C(=O)O)[C@@H](C)O [Compound 54]	32	630 (≈ 180 µM)	2.5
CCCC[C@H](NC(=O)[C@H](CC(C)C)NC(=O)[C@H](Cc1c[nH]c2ccccc12)NC(=O)[C@H](CCC(N)=O)NC(=O)NC[C@H](C)NC(=O)[C@H](Cc1ccccc1)NC(=O)[C@H](CC(=O)O)NC(=O)[C@H](CCC(N)=O)NC(=O)[C@H](C)NC(=O)[C@H](CCCNC(=N)N)NC(=O)[C@H](CCCNC(=N)N)NC(=O)[C@H](CO)NC(=O)[C@H](CC(=O)O)NC(=O)[C@H](CC(C)C)NC(=O)[C@H](Cc1ccc(O)cc1)NC(=O)[C@H](CCCCN)NC(=O)[C@H](CO)NC(=O)[C@H](Cc1ccc(O)cc1)NC(=O)[C@H](CC(=O)O)NC(=O)[C@H](CO)NC(=O)[C@@H](NC(=O)[C@H](Cc1ccccc1)NC(=O)[C@@H](NC(=O)CNC(=O)[C@H](CCC(N)=O)NC(=O)[C@H](CO)NC(=O)[C@@H](N)Cc1c[nH]cn1)[C@@H](C)O)[C@@H](C)O)C(=O)N[C@@H](CC(N)=O)C(=O)N[C@H](C(=O)O)[C@@H](C)O [Compound 55]	34	1390 (≈ 401 µM)	5.5
CCCC[C@H](NC(=O)[C@H](CC(C)C)NC(=O)[C@H](Cc1c[nH]c2ccccc12)NC(=O)NC[C@H](C)NC(=O)[C@@H](NC(=O)[C@H](Cc1ccccc1)NC(=O)[C@H](CC(=O)O)NC(=O)[C@H](CCC(N)=O)NC(=O)[C@H](C)NC(=O)[C@H](CCCNC(=N)N)NC(=O)[C@H](CCCNC(=N)N)NC(=O)[C@H](CO)NC(=O)[C@H](CC(=O)O)NC(=O)[C@H](CC(C)C)NC(=O)[C@H](Cc1ccc(O)cc1)NC(=O)[C@H](CCCCN)NC(=O)[C@H](CO)NC(=O)[C@H](Cc1ccc(O)cc1)NC(=O)[C@H](CC(=O)O)NC(=O)[C@H](CO)NC(=O)[C@@H](NC(=O)[C@H](Cc1ccccc1)NC(=O)[C@@H](NC(=O)CNC(=O)[C@H](CCC(N)=O)NC(=O)[C@H](CO)NC(=O)[C@@H](N)Cc1c[nH]cn1)[C@@H](C)O)[C@@H](C)O)C(C)C)C(=O)N[C@@H](CC(N)=O)C(=O)N[C@H](C(=O)O)[C@@H](C)O [Compound 56]	0.072	700 (≈ 204 µM)	2.8
CCCC[C@H](NC(=O)[C@H](CC(C)C)NC(=O)NC[C@H](C)NC(=O)[C@H](CCC(N)=O)NC(=O)[C@@H](NC(=O)[C@H](Cc1ccccc1)NC(=O)[C@H](CC(=O)O)NC(=O)[C@H](CCC(N)=O)NC(=O)[C@H](C)NC(=O)[C@H](CCCNC(=N)N)NC(=O)[C@H](CCCNC(=N)N)NC(=O)[C@H](CO)NC(=O)[C@H](CC(=O)O)NC(=O)[C@H](CC(C)C)NC(=O)[C@H](Cc1ccc(O)cc1)NC(=O)[C@H](CCCCN)NC(=O)[C@H](CO)NC(=O)[C@H](Cc1ccc(O)cc1)NC(=O)[C@H](CC(=O)O)NC(=O)[C@H](CO)NC(=O)[C@@H](NC(=O)[C@H](Cc1ccccc1)NC(=O)[C@@H](NC(=O)CNC(=O)[C@H](CCC(N)=O)NC(=O)[C@H](CO)NC(=O)[C@@H](N)Cc1c[nH]cn1)[C@@H](C)O)[C@@H](C)O)C(C)C)C(=O)N[C@@H](CC(N)=O)C(=O)N[C@H](C(=O)O)[C@@H](C)O [Compound 57]	22	970 (≈ 287 µM)	3.9
CCCC[C@H](NC(=O)NC[C@H](C)NC(=O)[C@H](Cc1c[nH]c2ccccc12)NC(=O)[C@H](CCC(N)=O)NC(=O)[C@@H](NC(=O)[C@H](Cc1ccccc1)NC(=O)[C@H](CC(=O)O)NC(=O)[C@H](CCC(N)=O)NC(=O)[C@H](C)NC(=O)[C@H](CCCNC(=N)N)NC(=O)[C@H](CCCNC(=N)N)NC(=O)[C@H](CO)NC(=O)[C@H](CC(=O)O)NC(=O)[C@H](CC(C)C)NC(=O)[C@H](Cc1ccc(O)cc1)NC(=O)[C@H](CCCCN)NC(=O)[C@H](CO)NC(=O)[C@H](Cc1ccc(O)cc1)NC(=O)[C@H](CC(=O)O)NC(=O)[C@H](CO)NC(=O)[C@@H](NC(=O)[C@H](Cc1ccccc1)NC(=O)[C@@H](NC(=O)CNC(=O)[C@H](CCC(N)=O)NC(=O)[C@H](CO)NC(=O)[C@@H](N)Cc1c[nH]cn1)[C@@H](C)O)[C@@H](C)O)C(C)C)C(=O)N[C@@H](CC(N)=O)C(=O)N[C@H](C(=O)O)[C@@H](C)O [Compound 58]	35	1510 (≈ 437 µM)	6.0
CCCC[C@H](NC(=O)[C@H](CC(C)C)NC(=O)[C@H](Cc1c[nH]c2ccccc12)NC(=O)[C@H](CCC(N)=O)NC(=O)[C@@H](NC(=O)[C@H](Cc1ccccc1)NC(=O)[C@H](CC(=O)O)NC(=O)[C@H](CCC(N)=O)NC(=O)[C@H](C)NC(=O)[C@H](CCCNC(=N)N)NC(=O)[C@H](CCCNC(=N)N)NC(=O)[C@H](CO)NC(=O)[C@H](CC(=O)O)NC(=O)[C@H](CC(C)C)NC(=O)[C@H](Cc1ccc(O)cc1)NC(=O)NC[C@H](CCCCN)NC(=O)[C@H](CO)NC(=O)[C@H](Cc1ccc(O)cc1)NC(=O)[C@H](CC(=O)O)NC(=O)[C@H](CO)NC(=O)[C@@H](NC(=O)[C@H](Cc1ccccc1)NC(=O)[C@@H](NC(=O)CNC(=O)[C@H](CCC(N)=O)NC(=O)[C@H](CO)NC(=O)[C@@H](N)Cc1c[nH]cn1)[C@@H](C)O)[C@@H](C)O)C(C)C)C(=O)N[C@@H](CC(N)=O)C(=O)N[C@H](C(=O)O)[C@@H](C)O [Compound 59] (I: YLDSRRAQDFVQWL[Nle]NT-OH / II: H-HSQGTFTSDYS; linker I:N-II:C via X4; C-terminus assumed)	32	720 (≈ 206 µM)	2.9
CCCC[C@H](NC(=O)[C@H](CC(C)C)NC(=O)[C@H](Cc1c[nH]c2ccccc12)NC(=O)[C@H](CCC(N)=O)NC(=O)[C@@H](NC(=O)[C@H](Cc1ccccc1)NC(=O)[C@H](CC(=O)O)NC(=O)NC[C@H](CCC(N)=O)NC(=O)[C@H](C)NC(=O)[C@H](CCCNC(=N)N)NC(=O)[C@H](CCCNC(=N)N)NC(=O)[C@H](CO)NC(=O)[C@H](CC(=O)O)NC(=O)[C@H](CC(C)C)NC(=O)[C@H](Cc1ccc(O)cc1)NC(=O)[C@H](CCCCN)NC(=O)[C@H](CO)NC(=O)[C@H](Cc1ccc(O)cc1)NC(=O)[C@H](CC(=O)O)NC(=O)[C@H](CO)NC(=O)[C@@H](NC(=O)[C@H](Cc1ccccc1)NC(=O)[C@@H](NC(=O)CNC(=O)[C@H](CCC(N)=O)NC(=O)[C@H](CO)NC(=O)[C@@H](N)Cc1c[nH]cn1)[C@@H](C)O)[C@@H](C)O)C(C)C)C(=O)N[C@@H](CC(N)=O)C(=O)N[C@H](C(=O)O)[C@@H](C)O [Compound 60]	36	830 (≈ 238 µM)	3.3
